Laboratory results reported in patent publication US7166625B2, “Method for treating fibrotic diseases and other indications” (Alteon, Inc., priority 2000, dated 2007).
Counter-ions that a name gives are not always drawn.

Legend:
[1] = literature series of mainly imidazolium compounds; cited from earlier work
dog model for diabetes = assay: Dog model for diabetes, ventricular elasticity; type: in vivo
From the text: (§1) Cardiovascular risk correlates more closely with the systolic and the pulse pressure than with the diastolic pressure. In diabetic patients, the cardiovascular risk profile of diabetic patients is strongly correlated to duration of diabetes, glycemic control and blood pressure. Structural matrix proteins contribute to the function of vessels and the heart, and changes in the physical behavior of cardiovascular walls are believed to be important determinants of circulatory function. In elderly individuals, the loss of compliance in the aorta leads to isolated systolic hypertension, which in turn expands the arterial wall and thereby diminishes the dynamic range of elasticity. […] Treatment with 3-[2-phenyl-2-oxoethyl]-4,5-dimethyl-thiazolium salt lead to a reduction in the mass of collagen in cardiovascular tissues.

[2] = system: elderly patients with pulse pressures greater than 60 mm Hg; assay: Phase IIa clinical trial; type: in vivo, human
From the text: When the heart pumps blood into the vascular system, the ability of the arteries to expand helps to push blood through the body. When arteries become stiff, as they do in the natural process of aging, the ability of the arteries to expand is diminished and also has consequences for the heart. The heart has to work harder to pump the blood into the stiff arteries, and eventually hypertrophies (enlarges in size) to accomplish this. A hypertrophied heart is an inefficient pump, and is one of the disorders that leads to congestive heart failure. […] The potential clinical benefit of this is to lessen the effort that the heart must expend to push blood throughout the body. The effect is also believed to contribute to preventing hypertrophy and subsequent inefficiency of the heart, which inefficiency would contribute to congestive heart failure.
Atherosclerosis is a disease that involves deposition of blood lipids in plaque in the arteries throughout the body. In coronary arteries, accumulation of plaque progressively leads to reduced coronary flow, with occlusion of the arteries causing focal death of cardiac tissue (myocardial infarction, heart attack). If the amount of tissue that dies is large enough, death ensures. In a Phase IIa trial, one compound believed to work by a mechanism shared by the compounds of the invention, 3-[2-phenyl-2-oxoethyl]-4,5-dimethyl-thiazolium salt, […] the amount of circulating triglycerides (lipids). […] Reducing local deposits of plaque should eventually lessen the risk of myocardial infarction and death due to heart attacks.
Pulse pressure is the difference between systolic and diastolic blood pressure. In a young human, systolic pressure is typically 120 mm Hg and diastolic pressure is 80 mm Hg, resulting in a pulse pressure of 40 mm Hg. With age, in many individuals pulse pressure increases, largely due to the increase in systolic pressure that results from stiff vessel disease. In individuals with pulse pressure greater than 60 mm Hg there is an increased risk of death from cardiovascular morbidities.

Type IV collagen = assay: In situ hybridization studies, Type IV collagen expression
From the text: as §1

Rats = assay: Rat myocardial infarct after ligation of the left anterior descending coronary artery; type: in vivo; settings: 10 mg/kg daily intraperitoneal, 30 days before and 14 days after coronary ligation
Method: Rats received a daily intraperitoneal dose of 10 mg/kg 3-[2-phenyl-2-oxoethyl]-4,5-dimethyl-thiazolium salt (compound A) (n=14) or placebo (n=15) for 30 days. The animals then underwent a thoracotomy and the left anterior descending coronary artery ligated. The chest was then closed and the animals allowed to recover for 14 days while continuing to be treated with compound A or placebo. The animals were then sacrificed and the hearts removed for histological examination. The weight of the infarcted tissue was 0.16±0.04 g for the placebo treated animals compared to 0.11±0.05 g for the compound A treated animals (p=0.04).

TGFbeta = assay: In situ hybridization studies, TGFbeta expression
From the text: as §1

[3] = system: rodents, canines and primates; assay: In vivo studies of vascular stiffening and collagen mass in cardiovascular tissues
From the text: as §1

Row | Compound | glucose lowering effect [1] | end diastolic pressure and end diastolic volume, indicators of ventricular elasticity (dog model for diabetes) | stiffness of arteries, measured by the ratio of stroke volume (ml) to pulse pressure (mm Hg) ([2]; Phase IIa clinical trial) | amount of circulating triglycerides (lipids) ([2]; Phase IIa trial) | pulse pressure ([2]; Phase IIa trial, elderly patients with pulse pressures greater than 60 mm Hg, statistically significant) | expression of Type IV collagen (Type IV collagen) | thickness of the ventricular wall in the infarcted zone (Rats; p=0.09 vs placebo) [mm] | weight of the infarcted tissue (Rats; placebo 0.16±0.04 g, p=0.04) [g] | expression of TGFbeta (TGFbeta) | mass of collagen in cardiovascular tissues ([3]; in vivo) | vascular stiffening ([3]; in vivo studies in rodents, canines and primates)
1 | 3-[2-(3,5-Dimethoxyphenyl)-2-oxoethyl]-oxazolium | inactive | – | – | – | – | – | – | – | – | – | –
2 | Cc1sc[n+](CC(=O)c2ccccc2)c1C [compound A, 3-[2-phenyl-2-oxoethyl]-4,5-dimethyl-thiazolium salt] | – | returned to a value at about the mid-point between the disease impaired value and the value for control dogs | reverse the stiffness of arteries | increased | reduced | reduces | 2.56±0.22 | 0.11 ± 0.05 | reduces | reduction | substantially ameliorating vascular stiffening
